Data as given in the CheMixHub drug solubility set.

Assay: xn = mol fraction of the nth substance listed, in the solute-free solvent

O=C(O)c1cc([N+](=O)[O-])ccc1O + CCCO + O
solubility (g/100 g solution)
Details | 278.15 K | 283.15 K | 288.15 K | 293.15 K | 298.15 K | 303.15 K | 308.15 K | 313.15 K | 318.15 K | 323.15 K
x2 = 0.03225 | 0.0803 | 0.104 | 0.134 | 0.171 | 0.216 | 0.26 | 0.316 | 0.38 | 0.458 | 0.542
x2 = 0.06974 | 0.189 | 0.227 | 0.294 | 0.366 | 0.45 | 0.559 | 0.678 | 0.817 | 1.01 | 1.24
x2 = 0.1139 | 0.45 | 0.55 | 0.689 | 0.87 | 1.08 | 1.3 | 1.55 | 1.79 | 2.07 | 2.41
x2 = 0.1666 | 0.839 | 1.02 | 1.3 | 1.63 | 2.02 | 2.42 | 2.82 | 3.28 | 3.77 | 4.3
x2 = 0.2307 | 1.52 | 1.91 | 2.38 | 2.94 | 3.59 | 4.22 | 4.85 | 5.61 | 6.41 | 7.29
x2 = 0.3103 | 2.34 | 2.82 | 3.45 | 4.11 | 4.94 | 5.73 | 6.68 | 7.75 | 8.82 | 10.2
x2 = 0.4117 | 3.55 | 4.17 | 4.92 | 5.66 | 6.64 | 7.67 | 8.85 | 9.98 | 11.2 | 12.6
x2 = 0.5454 | 4.75 | 5.34 | 6.09 | 7.02 | 8.12 | 9.33 | 10.6 | 12 | 13.4 | 15.1
x2 = 0.7297 | 5.59 | 6.57 | 7.78 | 8.73 | 9.96 | 11.3 | 12.4 | 13.8 | 15.2 | 16.8

O=C(O)c1ccc(C(=O)O)o1 + C1COCCO1 + O
solubility (g/100 g solution)
Details | 303.15 K | 308.15 K | 313.15 K | 318.15 K | 323.15 K | 328.15 K | 333.15 K | 338.15 K | 343.15 K
x2 = 0.1 | 1.85 | 1.98 | 2.15 | 2.38 | 2.63 | 2.92 | 3.24 | 3.48 | 3.73
x2 = 0.2 | 3.44 | 3.54 | 3.81 | 4.02 | 4.28 | 4.56 | 4.78 | 5.12 | 5.5
x2 = 0.3 | 3.8 | 4.14 | 4.34 | 4.76 | 5.21 | 5.62 | 6.07 | 6.46 | 7.05
x2 = 0.4 | 4.76 | 5.23 | 5.55 | 5.79 | 6.04 | 6.37 | 6.72 | 7.27 | 7.87
x2 = 0.5 | 4.37 | 4.77 | 5.03 | 5.38 | 5.75 | 6.1 | 6.48 | 6.97 | 7.5
x2 = 0.6 | 3.77 | 4.11 | 4.39 | 4.66 | 5 | 5.3 | 5.63 | 6.04 | 6.44
x2 = 0.7 | 3.03 | 3.32 | 3.51 | 3.71 | 3.94 | 4.25 | 4.48 | 4.89 | 5.36
x2 = 0.8 | 2.38 | 2.62 | 2.75 | 2.96 | 3.11 | 3.32 | 3.55 | 3.81 | 4.1
x2 = 0.9 | 1.3 | 1.42 | 1.54 | 1.73 | 1.93 | 2.11 | 2.35 | 2.61 | 2.87

CCCCOc1ccc(C(=O)CCN2CCCCC2)cc1.Cl + CCO + CCOC(C)=O
solubility (g/100 g solution)
Details | 278.15 K | 283.15 K | 288.15 K | 293.15 K | 298.15 K | 303.15 K | 308.15 K | 313.15 K | 318.15 K | 323.15 K
x2 = 0.1 | 4.4 | 5.22 | 6.12 | 7.23 | 8.43 | 9.93 | 11.7 | 13.6 | 15.8 | 18.4
x2 = 0.2 | 6.73 | 7.77 | 8.92 | 10.3 | 11.8 | 13.6 | 15.6 | 17.8 | 20.4 | 23.2
x2 = 0.3 | 9.22 | 10.6 | 12 | 13.6 | 15.3 | 17.3 | 19.6 | 22 | 24.8 | 27.7
x2 = 0.4 | 11.9 | 13.4 | 15.1 | 17 | 18.9 | 21.2 | 23.7 | 26.4 | 29.3 | 32.4
x2 = 0.5 | 14.7 | 16.5 | 18.3 | 20.4 | 22.6 | 25.2 | 27.9 | 30.8 | 33.9 | 37
x2 = 0.6 | 17.6 | 19.7 | 21.7 | 24.1 | 26.5 | 29.3 | 32.2 | 35.2 | 38.4 | 41.7
x2 = 0.7 | 20.8 | 23.2 | 25.4 | 28 | 30.6 | 33.5 | 36.6 | 39.8 | 43.1 | 46.5
x2 = 0.8 | 24.2 | 26.8 | 29.2 | 32 | 34.7 | 37.8 | 41 | 44.2 | 47.6 | 51
x2 = 0.9 | 27.9 | 30.7 | 33.2 | 36.1 | 39 | 42.2 | 45.5 | 48.8 | 52.2 | 55.5

O=C(O)c1cc([N+](=O)[O-])ccc1O + CN(C)C=O + O
solubility (g/100 g solution)
Details | 278.15 K | 283.15 K | 288.15 K | 293.15 K | 298.15 K | 303.15 K | 308.15 K | 313.15 K | 318.15 K | 323.15 K
x2 = 0.02666 | 0.182 | 0.224 | 0.277 | 0.352 | 0.437 | 0.534 | 0.645 | 0.775 | 0.924 | 1.1
x2 = 0.05806 | 0.538 | 0.682 | 0.832 | 1 | 1.26 | 1.54 | 1.85 | 2.17 | 2.56 | 3.01
x2 = 0.09556 | 1.2 | 1.45 | 1.81 | 2.17 | 2.65 | 3.12 | 3.74 | 4.38 | 5.16 | 6.11
x2 = 0.1412 | 2.33 | 2.71 | 3.27 | 3.93 | 4.66 | 5.53 | 6.45 | 7.43 | 8.54 | 9.8
x2 = 0.1978 | 3.78 | 4.51 | 5.41 | 6.42 | 7.5 | 8.84 | 10.3 | 11.9 | 13.5 | 15.4
x2 = 0.27 | 6.74 | 7.37 | 8.61 | 10.2 | 11.7 | 13.4 | 15.2 | 17.2 | 19.3 | 21.5
x2 = 0.3652 | 10.9 | 11.7 | 12.9 | 14.8 | 16.9 | 19 | 21.2 | 23.5 | 26.2 | 29.4
x2 = 0.4965 | 14.7 | 15.3 | 16.7 | 19.3 | 21.5 | 24 | 26.1 | 29.3 | 32.3 | 35.7
x2 = 0.6893 | 16.7 | 17.7 | 19.4 | 21.5 | 23.8 | 26.6 | 29 | 31.8 | 35.4 | 38.8

Oc1ccc(Cl)c2cccnc12 + CCCOC(C)=O + CCO
solubility (g/100 g solution)
Details | 278.15 K | 283.15 K | 288.15 K | 293.15 K | 298.15 K | 303.15 K | 308.15 K | 313.15 K | 318.15 K | 323.15 K
x2 = 0.1013 | 1.48 | 1.74 | 2.02 | 2.4 | 2.82 | 3.28 | 3.89 | 4.6 | 5.52 | 6.43
x2 = 0.2214 | 1.97 | 2.29 | 2.69 | 3.2 | 3.76 | 4.43 | 5.18 | 6.1 | 7.46 | 8.81
x2 = 0.4035 | 2.41 | 2.81 | 3.3 | 3.87 | 4.53 | 5.41 | 6.43 | 7.55 | 8.8 | 10.5
x2 = 0.6434 | 2.74 | 3.26 | 3.83 | 4.52 | 5.3 | 6.25 | 7.27 | 8.56 | 9.99 | 11.7
